Data from patent publication US8268849B2, “Multifunctional Antioxidants and methods of use thereof” (priority 2007, dated 2012).

What was measured:
[1] = Chelation study by ESI-MS, Fe^2+ solution; type: binding; settings: 10:1 metal:compound, 45 minutes of mixing
Procedure: (§1) The relative amount of ions bound by JHX-1-JHX-8 was determined by electrospray ionization mass spectrometry (ESI-MS) according to the method of Baron and Hering (Baron and Hering (1998) Spectrometry J. Environ. Qual., 27:844-850). In this method solutions containing Fe^2+, Fe^3+, Cu^1+, Cu^2+, Zn^2+, Ca^2+, Mg^2+ were mixed with compound in ratios of 10:1, 1:1, and 1:10. After 45 minutes of mixing, each solution was directly infused into the MS with constant ionization energy and the relative decreases of the parent peaks in these solutions were determined. […] FIG. 3 illustrates ion binding with increased Fe^+2 concentrations results in decreased compound parent peak heights by ESI-MS when compounds contain appropriate functional groups for metal ion chelation.

[2] = Chelation study by ESI-MS, Fe^3+ solution; type: binding; settings: 10:1 metal:compound, 45 minutes of mixing
Procedure: as §1

[3] = tested on: SRA-1 human lens epithelial cells; assay: ROS staining (H2DCF-DA) in lens epithelial cells; type: cell-based; settings: 24 hour incubation, H2DCF-DA stain; for ROS staining, ROS generated by Fenton reaction: 0.1 mM Fe^2+ and 0.1 mM hydrogen peroxide; for ROS staining, ROS initiated by homocysteine: 10 mM homocysteine (ER stress)
Procedure: The SRA-1 human lens epithelium cell line (Ibaraki et al. (1998) Exp. Eye Res., 67:577-85) was used to evaluate the antioxidant activity of JHX-1-8. These cells were cultured in DMEM media containing 10% fetal bovine serum (FBS), glutamine, NaHCO3, penicillin, and streptomycin at 37° C. in humidified atmosphere of 5% CO2 and 95% air until subconfluent (2-4 days). The cells were passaged when 80-90% confluent by treatment with trypsin-EDTA. The cells were plated at a density of 1×10^4 cells onto 96-well plates or 1×10^6 cells onto 100-mm dishes. ROS levels/effects in cells treated with JHX-1-8 were compared to similar cells treated with the water soluble Vitamin E derivative, Trolox (antioxidant control) or no drug (control).
The compounds were initially screened for antioxidant activity in 24 hour cultured SRA-1 human lens epithelial cells. Reactive oxygen species (ROS) in these cells were generated through both the Fenton reaction in which 0.1 mM Fe^2+ and 0.1 mM hydrogen peroxide were added to the culture media, or by culturing the lens with 10 mM homocysteine which induces endoplasmic reticular (ER) stress that results in the unfolded protein response (UPR) that subsequently generates the ROS. ROS were visualized with 2′,7′-dichlorodihydrofluorescein diacetate (DCF) staining. More specifically, after 24 hours of incubation, all cells were washed 2× with PBS and then incubated at room temperature for 1 hour with 10 μM H2DCF-DA (Invitrogen) stain. Fluorescent ROS staining was analyzed by quantifying pixel intensities of images obtained by fluorescent microscopy. As illustrated below in FIGS. 4A and 4B, compounds with chelating groups only produced a dose-dependent reduction in Fenton Reaction generated ROS. […] Indeed, homocysteine activates ER stress which subsequently initiates ROS through an Unfolded Protein Response (UPR).

[4] = Tissue drug levels in diabetic rats after 47 days of feeding; type: in vivo, Sprague Dawley rats
Procedure: To determine whether JHX-4 and JHX-8 can reach the target tissues of lens, retina and brain after oral administration, two groups of 4 young (100 g) Sprague Dawley rats were administered rat chow containing 0.05% of either drug for 6 days. […] Lens and posterior segments were homogenized in glass homogenizers in ice-cold PBS, pH 7.4, after addition of an aliquot of JHX-1 as an internal standard. The homogenates were deproteinized with 48 mM NaF and centrifuged. The supernatant was extracted with acetone. The acetone extract was evaporated under vacuum and the residue was dissolved in acetonitrile. Whole brains were similarly extracted; however, brain homogenates were deproteinized with equal amounts of 0.3 N Na2SO4 and 0.3 N Ba(OH)2. Drug levels were measured by reverse-phase HPLC with a Phenomenex LUNA 5 μm C18 column and an isocratic elution of 1:1 MeOH:Water. Detection was conducted at 245 nm and compound levels were quantified using standard curves. Lens and retinal drug levels were 200±11 and 1373±38 ng/mg protein for JHX-4 and 90±5 and 1060±12 ng/mg protein for JHX-8 respectively. Only trace amounts of either compound were detected in the brain.
Diabetes was induced in 100 g Sprague Dawley rats with streptozotocin injection (75 mg/kg) and all rats with blood sugar levels >300 mg/dL were divided into 4 groups of 8 rats each. One group received only standard rat chow (untreated diabetic) while each of the other groups received chow containing either 0.0125% ARI Al1576, 0.025% JHX-4 or 0.025% JHX-8. Lens changes were monitored by at 3-5 day intervals by slit lamp following tropicamide mydriasis. As summarized in FIGS. 8A-8C, vacuole formation began by 14 days in the untreated diabetic group with cortical opacities observed by 29 days and mature cataracts by 44 days. […] In the two antioxidant treated groups, vacuole formation was delayed by 19 and 11 days by JHX-4 and JHX-8, respectively, and cortical cataracts by 9 and 3 days, respectively. At the end of the study (47 days) all rats were equally diabetic with HbA1C levels >11.9%. All eyes were enucleated and lens sorbitol levels were measured as previously described (Kador et al. (2007) J. Ocul. Pharmacol. Ther., 23:116-23). […] Tissue levels of JHX-4 and -8 in the lens, neural retina and brain were determined after 47 days of feeding as described above (FIG. 10). […] Overall drug levels in both the lens and retina were ca. 3-fold higher in the diabetic rats with brain levels also now present. This increase may be due to either an accumulation of drug, or increased permeability of tissues and the BBB to drug in streptozotocin diabetic rats (Mooradian et al. (2005) Diabetes, 54:2977-82).

[5] = Chow consumption, body weight and salivary gland protection after whole head irradiation; type: in vivo, Long Evans rats; settings: for body weight after irradiation: 15 Gy whole head irradiation; for protection of the salivary gland: after whole head irradiation
From the text: Cataracts were induced by whole head gamma irradiation in 24 male Long Evans (150-200 g) rats. […] Because of the amount of drug required for this long-term study, the percentage of JHX-4 and JHX-8 utilized was ½ of the dose used in the diabetic study. […] Lens changes were monitored every 7 days by portable slit lamp and recorded on a scale from 0-6 with 0: Clear, 1: Posterior subcapsular haze, 2: Spokes, suture enhancement and powdery posterior subcapsular deposits, 3: Prominent posterior subcapsular punctate opacities with spokes and suture enhancement, 4: Posterior subcapsular opacity blocks appearance of retinal vessels, 5: Start cortical involvement, 6: Total lens opacity, visible with naked eye. […] Subsequently, all rats received standard rat chow with/without JHX-4 or -8.

| SMILES | % Parent Peak Remaining at 10:1 Solution of Metal:Compound [1] | % Parent Peak Remaining at 10:1 Solution of Metal:Compound [2] | ROS staining, ROS generated by Fenton reaction [3] | ROS staining, ROS initiated by homocysteine [3] | brain levels of drug [4] | drug levels in both the lens and retina, diabetic rats versus normal rats [4] | body weight after irradiation [5] | protection of the salivary gland [5] |
| --- | --- | --- | --- | --- | --- | --- | --- | --- |
| COc1nc(N2CC(=O)N(S(=O)(=O)N(C)C)C(=O)C2)nc(OC)c1O [JHX-8, 1-N,N′-dimethylsulfamoyl-4-(4,6-dimethoxy-5-hydroxy-2-pyrimidyl)piperazine-2,6-dione] | 7.5% | 8.2% | protected against ROS | reduced ROS staining similar to that with Trolox | now present | ca. 3 fold | reducing post-irradiation weight loss | provided systemic protection |
| CN(C)S(=O)(=O)N1C(=O)CN(c2ncc(O)cn2)CC1=O [JHX-4, 1-N,N′-dimethylsulfamoyl-4-(5-hydroxy-2-pyrimidyl)piperazine-2,6-dione] | 6.9% | 8.2% | protected against ROS | reduced ROS staining similar to that with Trolox | now present | ca. 3 fold | reducing post-irradiation weight loss | provided systemic protection |
